Laboratory results as given in the supplement of paper PMC10307832.

Key:
Experiment in all cases: relative viability (nuclei count vs DMSO), 5 days (fraction); higher = more cells survive
CAP-232 + Trametinib = compound: C[C@H]([C@@H](C(=O)N)NC(=O)[C@@H]1CSSC[C@@H](C(=O)N[C@H](C(=O)N[C@@H](C(=O)N[C@H](C(=O)N1)CCCCN)CC2=CNC3=CC=CC=C32)CC4=CC=C(C=C4)O)NC(=O)[C@@H](CC5=CC=CC=C5)N)O [CAP-232] + CC(=O)Nc1cccc(-n2c(=O)n(C3CC3)c(=O)c3c(Nc4ccc(I)cc4F)n(C)c(=O)c(C)c32)c1 [Trametinib] (partner 0.02 µM)
Method in brief: (§1)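 Cells from lung cancer lines were seeded into 1536-well plates and, one day later, dosed by pin tool. Treatments were either a single drug or a fixed dose of an anchor drug with five library-drug doses (not always all listed) in √10 steps. After 5 days, nuclei were stained in a one-step fixation (final 0.05% Triton X-100, 1% formaldehyde, 1 ug/ml Hoechst) and counted on 4× images, and relative viability is the treated-to-vehicle nuclei ratio, as the median of duplicate plates.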

CAP-232 + Luminespib = compound: C[C@H]([C@@H](C(=O)N)NC(=O)[C@@H]1CSSC[C@@H](C(=O)N[C@H](C(=O)N[C@@H](C(=O)N[C@H](C(=O)N1)CCCCN)CC2=CNC3=CC=CC=C32)CC4=CC=C(C=C4)O)NC(=O)[C@@H](CC5=CC=CC=C5)N)O [CAP-232] + CCNC(=O)c1noc(-c2cc(C(C)C)c(O)cc2O)c1-c1ccc(CN2CCOCC2)cc1 [Luminespib] (partner 0.01 µM)
Method in brief: as §1

CAP-232 + AZD7762 = compound: C[C@H]([C@@H](C(=O)N)NC(=O)[C@@H]1CSSC[C@@H](C(=O)N[C@H](C(=O)N[C@@H](C(=O)N[C@H](C(=O)N1)CCCCN)CC2=CNC3=CC=CC=C32)CC4=CC=C(C=C4)O)NC(=O)[C@@H](CC5=CC=CC=C5)N)O [CAP-232] + NC(=O)Nc1cc(-c2cccc(F)c2)sc1C(=O)N[C@H]1CCCNC1 [AZD7762] (partner 0.2 µM)
Method in brief: as §1

CAP-232 + Decitabine = compound: C[C@H]([C@@H](C(=O)N)NC(=O)[C@@H]1CSSC[C@@H](C(=O)N[C@H](C(=O)N[C@@H](C(=O)N[C@H](C(=O)N1)CCCCN)CC2=CNC3=CC=CC=C32)CC4=CC=C(C=C4)O)NC(=O)[C@@H](CC5=CC=CC=C5)N)O [CAP-232] + Nc1ncn([C@H]2C[C@H](O)[C@@H](CO)O2)c(=O)n1 [Decitabine] (partner 2 µM)
Method in brief: as §1

CAP-232 + Navitoclax = compound: C[C@H]([C@@H](C(=O)N)NC(=O)[C@@H]1CSSC[C@@H](C(=O)N[C@H](C(=O)N[C@@H](C(=O)N[C@H](C(=O)N1)CCCCN)CC2=CNC3=CC=CC=C32)CC4=CC=C(C=C4)O)NC(=O)[C@@H](CC5=CC=CC=C5)N)O [CAP-232] + CC1(C)CCC(c2ccc(Cl)cc2)=C(CN2CCN(c3ccc(C(=O)NS(=O)(=O)c4ccc(N[C@H](CCN5CCOCC5)CSc5ccccc5)c(S(=O)(=O)C(F)(F)F)c4)cc3)CC2)C1 [Navitoclax] (partner 0.5 µM)
Method in brief: as §1

Cell Line	relative viability (CAP-232 + Trametinib; first compound 0.4 µM)	relative viability (CAP-232 + Trametinib; first compound 1.265 µM)	relative viability (CAP-232 + Trametinib; first compound 4 µM)	relative viability (CAP-232 + Trametinib; first compound 12.65 µM)	relative viability (CAP-232 + Luminespib; first compound 0.4 µM)	relative viability (CAP-232 + Luminespib; first compound 1.265 µM)	relative viability (CAP-232 + Luminespib; first compound 4 µM)	relative viability (CAP-232 + Luminespib; first compound 12.65 µM)	relative viability (CAP-232 + AZD7762; first compound 0.4 µM)	relative viability (CAP-232 + AZD7762; first compound 1.265 µM)	relative viability (CAP-232 + AZD7762; first compound 4 µM)	relative viability (CAP-232 + AZD7762; first compound 12.65 µM)	relative viability (CAP-232 + Decitabine; first compound 0.4 µM)	relative viability (CAP-232 + Decitabine; first compound 1.265 µM)	relative viability (CAP-232 + Decitabine; first compound 4 µM)	relative viability (CAP-232 + Decitabine; first compound 12.65 µM)	relative viability (CAP-232 + Navitoclax; first compound 0.4 µM)	relative viability (CAP-232 + Navitoclax; first compound 1.265 µM)	relative viability (CAP-232 + Navitoclax; first compound 4 µM)	relative viability (CAP-232 + Navitoclax; first compound 12.65 µM)
HARA	0.323	0.9	0.643	0.506	0.918	0.884	0.973	0.804	0.397	0.576	0.267	0.315	0.526	0.555	0.523	0.527	1.14	1.16	1.13	1.21
HCC-15	0.376	0.364	0.393	0.267	0.254	0.228	0.248	0.312	1.36	1.28	1.34	1.14	0.686	0.62	0.638	0.176	0.736	0.726	0.774	0.576
HCC-44	0.997	1.02	1.06	1.04	1.35	1.01	0.759	1	0.995	1.06	1.04	0.986	1.03	0.962	0.972	0.935	1.03	0.977	1.16	1.14
HCC-827	0.469	0.543	0.491	0.549	0.629	0.66	0.659	0.749	0.19	0.204	0.174	0.182	0.334	0.357	0.324	0.365	0.96	1	1.03	0.993
HOP-62	0.333	0.348	0.382	0.423	0.957	0.917	1.13	0.908	0.883	0.482	0.981	0.607	0.255	0.209	0.256	0.229	0.792	0.955	1.17	0.902
LC-2-ad	0.967	0.925	0.936	0.884	1.03	1.07	0.965	0.561	0.917	0.815	0.919	0.688	0.866	0.705	0.76	0.771	0.428	0.363	0.497	0.33
LCLC-97TM1	0.143	0.184	0.154	0.188	0.799	0.819	0.804	0.799	0.442	0.238	0.341	0.429	0.195	0.211	0.192	0.237	0.408	0.294	0.397	0.366
LK-2	0.438	0.687	0.711	0.563	0.176	0.207	0.19	0.183	0.357	0.274	0.322	0.376	0.357	0.234	0.37	0.302	0.733	0.791	1.01	0.622
LOU-NH91	0.834	0.811	0.783	0.445	0.335	0.271	0.341	0.326	0.857	0.758	0.799	0.287	0.787	0.787	0.8	0.594	0.729	0.734	0.665	0.437
LU99A	0.283	0.634	0.553	0.444	0.333	0.267	0.182	0.246	0.422	0.359	0.269	0.335	0.861	0.806	1.1	0.973	1.03	0.818	0.864	0.78
LXF-289	0.657	0.687	0.657	0.713	0.787	0.642	0.581	0.775	1.19	1.16	1.15	1.27	0.331	0.36	0.391	0.343	0.998	0.956	0.964	0.959
NCI-H23	0.339	0.435	0.439	0.28	0.218	0.196	0.197	0.119	0.286	0.236	0.239	0.22	0.293	0.295	0.296	0.295	0.806	0.861	0.982	0.713
NCI-H322M	0.46	0.514	0.497	0.539	0.686	0.832	0.809	0.565	0.827	0.645	0.528	0.556	0.706	0.654	0.701	0.704	1.32	1.26	1.36	1.13
NCI-H441	0.431	0.41	0.479	0.501	0.388	0.329	0.382	0.382	1.03	1.16	1.22	0.922	0.26	0.242	0.286	0.234	0.554	0.756	0.717	0.641
NCI-H460	0.134	0.208	0.165	0.0175	0.0294	0.0314	0.0247	0.0208	0.856	0.58	0.734	0.416	0.496	0.475	0.541	0.17	1.02	1.36	1.11	0.542
NCI-H596	0.901	0.675	0.851	0.765	1.03	1.03	0.988	0.901	1.1	1.13	1.05	1.09	1.03	0.971	0.69	0.965	0.839	1	1.08	0.987
NCI-H647	0.321	0.504	0.564	0.249	0.12	0.114	0.211	0.203	0.767	0.33	0.696	0.282	0.308	0.372	0.318	0.297	1.35	1.27	1.31	1.09
NCI-H727	0.383	0.397	0.442	0.415	0.474	0.318	0.348	0.386	0.572	0.586	0.612	0.617	0.717	0.831	1.07	0.957		0.431	0.377	0.347
NCI-H838	0.59	0.555	0.626	0.39	0.321	0.266	0.349	0.246	1.05	0.995	0.989	0.823	0.408	0.469	0.479	0.374	1.21	1.19	1.28	0.556
NCI-H1355	0.437	0.434	0.456	0.342	0.81	0.808	0.578	0.683	0.794	0.82	0.872	0.706	0.339	0.33	0.391	0.338	0.96	0.921	1.14	0.966
NCI-H1395	1.17		1.06	1.1	0.661	0.638	0.665	0.614	0.511		0.423	0.224	0.777		0.745	0.537	1.14	1	1.07	0.927
NCI-H1437	0.445	0.515	0.617	0.458	1.17	1.13	1.24	0.812	1.15	1.11	1.09	1.05	0.559	0.535	0.624	0.523	1.12	1.07	1.15	0.862
NCI-H1651	0.902	0.803	0.836	0.784	1.12	0.95	0.867	0.506	0.487	0.429	0.553	0.481	0.681	0.579	0.707	0.683	1.02	0.969	1.08	0.535
NCI-H1666	0.699	0.859	0.924	0.734	1.03	1.04	0.982	0.963	0.918	0.882	0.859	0.908	0.711	0.735	0.814	0.796	0.89		1.08	0.931
NCI-H1734	0.506	0.656	0.645	0.504	0.194	0.214	0.163	0.206	0.637	0.578	0.527	0.426	0.484	0.511	0.516	0.397	0.778	0.849	0.889	0.767
NCI-H1755	0.765	0.724	0.792	0.771	0.419	0.612	0.329	0.383	0.453	0.396	0.536	0.403	0.734	0.738	0.761	0.723	0.6	1.1	1.1	0.949
NCI-H1792	0.516	0.443	0.474	0.415	0.375	0.445	0.371	0.279	0.892	0.715	0.793	0.757	0.636	0.54	0.555	0.365	1.2	0.638	0.656	0.452
NCI-H1793	0.342	0.396	0.356	0.493	0.199	0.195	0.451	0.165	0.437	0.618	0.518	0.524	0.473	0.406	0.389	0.494	0.412	0.346	0.329	0.361
